Results reported in patent US20240165132A1, “METHODS AND MATERIALS FOR TREATING CANCER” (Mayo Foundation for Medical Education and Research, priority 2021, published 2024).
Where two headings read alike, the source gives them in different places.

Columns and labels:
[1] = system: radiated orthotopic glioma; assay: Convection-enhanced delivery into radiated orthotopic tumors, tumor bioluminescence; format: in vivo, mice; details: CED 1 month after radiation, read 1 further month thereafter; vehicle 39.7%
Protocol: FIGS. 18A-18C show in vivo senescent glioblastoma tumor ablation by convection enhanced drug delivery.
Senolytic drugs were screened using human glioblastoma cells radiated with 10-20 Gy, or 100 uM TMZ and then maintained for 3 to 4 weeks. Senescence was confirmed via beta-galactosidase staining, elevated p21 transcript and loss of nuclear […] immunohistochemistry (FIGS. 16A-16B). IC50 was compared in radiated (senescent) vs non-radiated cells using the cell-titer glow assay. 1 month after in vivo radiation of intracranial tumors, convection-enhanced delivery (CED) of drug was performed. Any change in tumor bioluminescence was evaluated 1 month thereafter. CED infusion efficacy was confirmed via MRI.

GBM39 (p53 WT) = assay: MDM2 inhibitor pre-treatment then Bcl-XL inhibitor, CellTiter-Glo; format: cell-based; details: Homo sapiens
Protocol: Cells were then maintained for seven days, to allow time for cells to establish a senescent-like phenotype. […] Cell viability was evaluated after 5 days using the CellTiter-Glo luminescence-based cell viability assay.

GBM39, 76, 10 and 123 = assay: BCL-2-family inhibitors in radiated vs non-radiated GBM lines; format: cell-based, human; details: GBM39, 76, 10, 123; 4 days drug starting 21 days after radiation
Protocol: Dose response curves shown for control non-radiated (black) and 15 Gy radiated (grey) cells. Cells were exposed to drug for 4 days, starting 21 days after radiation. […] For all groups, luminescence values are normalized individually to 0 nM control. Data shown are means±SEM of three technical replicates at each concentration. Data shown are representative of multiple confirmatory experiments.
Human glioblastoma cells were exposed to 10, 15 or 20 Gy radiation as indicated above. All GBM lines tested (Table 2) yielded a subpopulation of surviving non-proliferative cells used for subsequent experiments, with the exception of GM43 which yielded insufficient surviving cells for senescence experiments. All senolytic drugs used in this study were dissolved in DMSO (Table 1). Control (0 nM) cells were treated with the same dose of DMSO as cells with the highest drug concentration. Unless specified otherwise, cells were maintained in drug-containing media for four days prior to evaluation of cell viability using ATP lite, CellTiter-Glo assay according to company protocol (Cat #G7570). For all experiments, luminescence values are normalized to the 0 nM control for that cell line and radiation dose. All dose response graphs are depicted standard error of the mean (SEM) of 3 technical replicates at each concentration. Representative data are shown for experiments performed in independent replicates.
Among the 13 human GBM cell lines evaluated, meaningful analysis was possible in all with the exception of GBM43, for which insufficient cells survived radiation to permit testing. While the IC50 of Bcl-XL inhibition with and without radiation varied markedly between lines, radiated GBM was reproducibly more susceptible to Bcl-XL inhibition than non-radiated GBM.

GBM76 and GBM39 = assay: BCL-2 family inhibitors after TMZ exposure; format: cell-based, human; details: TMZ 100 μM 7 days then 14 days TMZ-free media
Protocol: GBM76 and GBM39 were treated with TMZ (100 μM) for 7 days followed by 14 days TMZ-free media prior to treatment with BCL-2 family inhibitors as shown. […] For all experiments, luminescence values are normalized individually to 0 nM control. All data are means±SEM of 3 technical replicates at each concentration.
After plating, cells were maintained in 10 cm culture dishes for 2-4 days until >50% confluent. Cells were then treated with TMZ for 7 days or radiation (cesium gamma radiator) with varying doses. Most experiments were performed after use of 15 Gy to induce senescence. […] “Senescent” tumor cells used for experiments are designated by those that survive following TMZ or radiation treatments. […] For initial screening of senolytic drugs, cells were maintained for at least 20 days after radiation or TMZ prior to re-plating cells into black walled optical 96-well plates (5000 cells/well) for doing drug treatment.
Human glioblastoma cells were exposed to 10, 15 or 20 Gy radiation as indicated above. […] All senolytic drugs used in this study were dissolved in DMSO (Table 1). Control (0 nM) cells were treated with the same dose of DMSO as cells with the highest drug concentration. […] For all experiments, luminescence values are normalized to the 0 nM control for that cell line and radiation dose. […]

[2] = system: GBM12 parental line and TMZ-resistant subclones; assay: TMZ re-challenge plus Bcl-XL inhibitor, CellTiter-Glo; format: cell-based, human; details: 10 μM TMZ plus 1 μM inhibitor, 5 days
GBM39 = assay: Radiation dose and time-point dependency of Bcl-XL inhibitor sensitivity; format: cell-based, human
Protocol: F our days after radiation, cells were plated in black wall 96-well plates. Overnight and drugs added the next day. Seven days after drug treatment, cell viability was measured by CellTiter-Glo. To determine the impact of varying duration of drug exposure, 15 Gy radiated cells were plated 7 days after radiation, where the minimum drug exposure time was 1 hour and the maximum 96 hours. Cells were plated in black-wall 96-well plates, and drugs added the next day as described above. At the designated time-point, drug-containing media was removed and replaced with drug-free media for the remainder of the experiment (one wash with media, during a replacement). The cell viability assay was performed at the end of 96 hours. The previous experiments maintained radiated cells for 2-4 weeks after radiation prior to senolytic drug testing. While the senescence process often takes weeks, the apoptotic pathways regulated by Bcl-2 family members are dynamically regulated within days following DNA damage. As such, GBM39 was used to ask if a minimal period of time after radiation must elapse following radiation prior to onset of Bcl-XL sensitivity. […] Analysis was performed at the end of the 4 days drug exposure. […] Whether a minimal radiation dose was required to induce susceptibility cell death with Bcl-XL inhibition was investigated. […] For most cell lines, radiation doses of 10-20 Gy yielded similar results (FIG. 6 and Table 3). The duration of continuous Bcl-XL inhibitor exposure required to observe senolytic effect was investigated. To accomplish this, GBM39 was exposed to drug for varying durations from 0-96 hours, with drug then washed off and cells maintained in normal growth media thereafter until time of analysis.

SMILES: Cc1c(-c2ccc(N3CCc4cccc(C(=O)Nc5nc6ccccc6s5)c4C3)nc2C(=O)O)cnn1CC12CC3CC(CC(C3)C1)C2 [A1331852]
- Decrease of tumor bioluminescence [1]: 93.1%
- IC50 (GBM39 (p53 WT); GBM39, read-out: IC50 of A1331852, GBM39, 5 Gy radiation alone (vehicle pre-treatment)): 5600 nM
- IC50 (GBM39 (p53 WT); GBM39, read-out: IC50 of A1331852, GBM39, MDM2 inhibitor AMG232 1 μM 48 hours prior to 5 Gy radiation): 300 nM
- Sensitivity of 15 Gy-radiated vs non-radiated cells (GBM39, 76, 10 and 123): higher sensitivity than non-radiated cells
- Selective vulnerability of TMZ-treated cells (GBM76 and GBM39): selective vulnerability
- Ablation of TMZ-resistant subclones ([2]; 3 TMZ-resistant subclones (R)): induced complete ablation
- Ablation of parental TMZ-sensitive cells ([2]; parental cells (S)): increased TMA-induced ablation
- Cell ablation by start of treatment after radiation (GBM39; GBM39, 4 days drug, start 5 or 9 days vs 1 day after radiation): more complete cell ablation was observed with a leftward shift of the dose response curve
- Radiation dose that promoted sensitivity (GBM39; GBM39, increasing efficacy up to 15 Gy): ≥ 4 Gy
